{"source": "the NIST ThermoML archive (doi:10.1016/j.jct.2008.07.010)", "key": {"[1]": {"details": "101 kPa, Liquid; for viscosity: Capillary tube (Ostwald / Ubbelohde) method; for speed of sound: Sing-around technique in a fixed-path interferometer; for mass density: Vibrating tube method"}, "[2]": {"experiment": "xn = mol fraction of the nth substance listed", "details": "101 kPa, Liquid, x1 = 1; for viscosity: Capillary tube (Ostwald / Ubbelohde) method; for speed of sound: Sing-around technique in a fixed-path interferometer; for mass density: Vibrating tube method"}}, "note": "Values joined by “and” are separate entries in the source; they are usually repeats but may differ in a detail not shown here. Equal values may be shown once. ± gives the expanded uncertainty stated by the source."}
{"compound": "CC(C)CCCC(C)CCCC(C)CCCCC(C)CCCC(C)CCCC(C)C", "note": "(stereo not given) [2,6,10,15,19,23-hexamethyltetracosane]", "values": [{"measurement": "viscosity", "setting": "[1]; 298.15 K", "value": "28.26 ± 0.31", "unit": "mPa·s"}, {"measurement": "speed of sound", "setting": "[1]; 298.15 K", "value": "1381.9 ± 1.3", "unit": "m/s"}, {"measurement": "mass density", "setting": "[1]; 298.15 K", "value": "805.122 ± 0.24", "unit": "kg/m3"}, {"measurement": "viscosity", "setting": "[1]; 303.15 K", "value": "22.09 ± 0.26", "unit": "mPa·s"}, {"measurement": "speed of sound", "setting": "[1]; 303.15 K", "value": "1364.1 ± 1.3", "unit": "m/s"}, {"measurement": "mass density", "setting": "[1]; 303.15 K", "value": "801.912 ± 0.24", "unit": "kg/m3"}, {"measurement": "viscosity", "setting": "[1]; 308.15 K", "value": "17.77 ± 0.21", "unit": "mPa·s"}, {"measurement": "speed of sound", "setting": "[1]; 308.15 K", "value": "1346.5 ± 1.3", "unit": "m/s"}, {"measurement": "mass density", "setting": "[1]; 308.15 K", "value": "798.709 ± 0.24", "unit": "kg/m3"}]}
{"compound": "CCCCCCCCCCCCCCCC", "note": "[hexadecane]", "values": [{"measurement": "viscosity", "setting": "[1]; 298.15 K", "value": "3.041 ± 0.026", "unit": "mPa·s"}, {"measurement": "speed of sound", "setting": "[1]; 298.15 K", "value": "1338.6 ± 1.3", "unit": "m/s"}, {"measurement": "mass density", "setting": "[1]; 298.15 K", "value": "770.456 ± 0.24", "unit": "kg/m3"}, {"measurement": "viscosity", "setting": "[1]; 303.15 K", "value": "2.706 ± 0.024", "unit": "mPa·s"}, {"measurement": "speed of sound", "setting": "[1]; 303.15 K", "value": "1320 ± 1.3", "unit": "m/s"}, {"measurement": "mass density", "setting": "[1]; 303.15 K", "value": "766.981 ± 0.24", "unit": "kg/m3"}, {"measurement": "viscosity", "setting": "[1]; 308.15 K", "value": "2.409 ± 0.022", "unit": "mPa·s"}, {"measurement": "speed of sound", "setting": "[1]; 308.15 K", "value": "1301.7 ± 1.3", "unit": "m/s"}, {"measurement": "mass density", "setting": "[1]; 308.15 K", "value": "763.52 ± 0.24", "unit": "kg/m3"}]}
{"compound": "CC(C)O", "note": "[propan-2-ol]", "values": [{"measurement": "viscosity", "setting": "[1]; 298.15 K", "value": "2.061 ± 0.018", "unit": "mPa·s"}, {"measurement": "speed of sound", "setting": "[1]; 298.15 K", "value": "1139.3 ± 0.85 m/s and 1139.3 ± 0.9 m/s"}, {"measurement": "mass density", "setting": "[1]; 298.15 K", "value": "781.152 ± 0.15", "unit": "kg/m3"}, {"measurement": "viscosity", "setting": "[1]; 303.15 K", "value": "1.758 ± 0.015", "unit": "mPa·s"}, {"measurement": "speed of sound", "setting": "[1]; 303.15 K", "value": "1122 ± 0.8", "unit": "m/s"}, {"measurement": "mass density", "setting": "[1]; 303.15 K", "value": "776.87 ± 0.15", "unit": "kg/m3"}, {"measurement": "viscosity", "setting": "[1]; 308.15 K", "value": "1.573 ± 0.013", "unit": "mPa·s"}, {"measurement": "speed of sound", "setting": "[1]; 308.15 K", "value": "1104.5 ± 0.8", "unit": "m/s"}, {"measurement": "mass density", "setting": "[1]; 308.15 K", "value": "772.511 ± 0.15", "unit": "kg/m3"}]}
{"compound": "CC(C)O", "note": "[propan-2-ol] + CC(C)CCCC(C)CCCC(C)CCCCC(C)CCCC(C)CCCC(C)C", "values": [{"measurement": "viscosity", "setting": "[2]; 298.15 K", "value": "2.061 ± 0.018", "unit": "mPa·s"}, {"measurement": "speed of sound", "setting": "[2]; 298.15 K", "value": "1139.3 ± 0.9", "unit": "m/s"}, {"measurement": "mass density", "setting": "[2]; 298.15 K", "value": "781.152 ± 0.15", "unit": "kg/m3"}, {"measurement": "viscosity", "setting": "[2]; 303.15 K", "value": "1.758 ± 0.015", "unit": "mPa·s"}, {"measurement": "speed of sound", "setting": "[2]; 303.15 K", "value": "1122 ± 0.8", "unit": "m/s"}, {"measurement": "mass density", "setting": "[2]; 303.15 K", "value": "776.87 ± 0.15", "unit": "kg/m3"}, {"measurement": "viscosity", "setting": "[2]; 308.15 K", "value": "1.573 ± 0.013", "unit": "mPa·s"}, {"measurement": "speed of sound", "setting": "[2]; 308.15 K", "value": "1104.5 ± 0.8", "unit": "m/s"}, {"measurement": "mass density", "setting": "[2]; 308.15 K", "value": "772.511 ± 0.15", "unit": "kg/m3"}]}
{"compound": "CC(C)O", "note": "[propan-2-ol] + CCCCCCCCCCCCCCCC", "values": [{"measurement": "viscosity", "setting": "[2]; 298.15 K", "value": "2.061 ± 0.018", "unit": "mPa·s"}, {"measurement": "speed of sound", "setting": "[2]; 298.15 K", "value": "1139.3 ± 0.85", "unit": "m/s"}, {"measurement": "mass density", "setting": "[2]; 298.15 K", "value": "781.152 ± 0.15", "unit": "kg/m3"}, {"measurement": "viscosity", "setting": "[2]; 303.15 K", "value": "1.758 ± 0.015", "unit": "mPa·s"}, {"measurement": "speed of sound", "setting": "[2]; 303.15 K", "value": "1122 ± 0.8", "unit": "m/s"}, {"measurement": "mass density", "setting": "[2]; 303.15 K", "value": "776.87 ± 0.15", "unit": "kg/m3"}, {"measurement": "viscosity", "setting": "[2]; 308.15 K", "value": "1.573 ± 0.013", "unit": "mPa·s"}, {"measurement": "speed of sound", "setting": "[2]; 308.15 K", "value": "1104.5 ± 0.8", "unit": "m/s"}, {"measurement": "mass density", "setting": "[2]; 308.15 K", "value": "772.511 ± 0.15", "unit": "kg/m3"}]}
